Laboratory results reported in US20100069402A1, “Treatment of Behavioral Disorders” (priority 2004, published 2010).

Legend:
Type in all cases: in vivo
[1] = test system: children with ADHD and allergic rhinitis; test: STUDY A: ADHD measures, Conners' Rating Scale t-scores; settings: po qam for 2 weeks; for hyperactivity t-scores (FIG. 1): evaluation of the ADHD parameters
Description: (§1) In general, two studies were conducted to better understand the association between the allergy/immune system and the central nervous system. STUDY A, tested the effects of cetirizine (namely ZYRTEC), cetirizine and methylphenidate (namely RITALIN SR), and methylphenidate, versus placebo on attention, memory, and behavior in children with ADHD and allergic rhinitis. STUDY B assessed NGF response to cetirizine and methylphenidate treatment in children with ADHD and allergic rhinitis.
(§2) The individuals chosen to be a part of these studies had the following characteristics:
(§3) All subjects were randomized into one of four treatment groups as follows:
(§4) 1) cetirizine alone: 10 mg po qam for 2 weeks;
(§5) 2) Combination of cetirizine and methylphenidate: 10 mg po qam RITALIN SR (20 mg if <65 kg; 40 mg if ≧65 kg) po qam for 2 weeks;
(§6) 3) Methylphenidate alone: (20 mg if <65 kg; 40 mg if ≧65 kg) po qam for 2 weeks; and
5) Conners' Rating Scale—Revised, (CRS)

[2] = test system: children with ADHD and allergic rhinitis; test: STUDY A: allergic rhinitis measures (rhinoconjunctivitis symptoms, RQLQ); settings: children 8-18 years with ADHD and seasonal allergic rhinitis; po qam for 2 weeks
Description: as §1, §2, §3, §4, §5, §6
1) Rhinoconjunctivitis Symptoms
2) Total Symptom Severity Complex, (TSSC)
3) Adolescent Rhinoconjunctivitis Quality of Life Questionnaire, (RQLQ)

[3] = test system: NGF; test: STUDY B: serum NGF assay by ELSA (Enzyme-Linked Immunosorbent Assay); settings: children with ADHD and allergies; po qam for 2 weeks; NGF highest on placebo
Description: as §1, §2, §3, §4, §5
3) Methylphenidate alone: (20 mg if <65 kg; 40 mg if ≧65 kg) po qam for 2 weeks; and […]

| Compound | hyperactivity t-scores (FIG. 1) [1] | parental Conner's report: ADHD score [1] | parental Conner's report: hyperactivity score [1] | parental Conner's report: inattention score [1] | parental Conner's report: oppositional score [1] | RQLQ emotional symptoms, change from baseline [2] | RQLQ nasal symptoms [2] | rhinoconjuctivitis quality of life scores [2] | serum NGF level versus placebo [3] |
| --- | --- | --- | --- | --- | --- | --- | --- | --- | --- |
| COC(=O)C(c1ccccc1)C1CCCCN1 (stereo not drawn) [methylphenidate] | no difference was noted | no difference was recorded | no difference was recorded | no difference was recorded | no difference was recorded | similar | superior effect compared to cetirizine | superior effect compared to cetirizine | downregulated to the same extent |
| O=C(O)COCCN1CCN(C(c2ccccc2)c2ccc(Cl)cc2)CC1 (stereo not drawn) [cetirizine] | no difference was noted | no difference was recorded | no difference was recorded | no difference was recorded | no difference was recorded | similar | methylphenidate had a superior effect compared to cetirizine | methylphenidate had a superior effect compared to cetirizine | downregulated to the same extent |
